These results are taken from publication PMC5843810, “18th European Symposium on Radiopharmacy and Radiopharmaceuticals” (EJNMMI Radiopharmacy and Chemistry, 2016).

Where two headings read alike, the source gives them in different places.

The nature of one series: in vivo. To be noted: C57BL/6, mouse, αvβ3-positive melanoma tumor, iv, total radioactivity. On the procedure:
Materials and methods: cRGDfK was functionalized with N3CH2COOH and N3PEG7COOH at ε-amino group of lysine. […] Biodistribution study of the two radiotracers was carried out in C57BL/6 mice bearing αvβ3-positive melanoma tumors. The radioactive preparation (~3.7 MBq/animal, 100 μL) was injected intravenously through the lateral tail vein. At different time intervals after injection (30, 60, and 180 min), the animals (n = 4/time point) were sacrificed and the relevant organs excised for measurement of retained activity.

In series [1] the target is prostacyclin receptor (IPR) (Homo sapiens, UniProt P43119). Description: Affinity for prostacyclin receptor (IPR). Format: binding.
Sequence of prostacyclin receptor (IPR) (P43119 whole entry, species assumed): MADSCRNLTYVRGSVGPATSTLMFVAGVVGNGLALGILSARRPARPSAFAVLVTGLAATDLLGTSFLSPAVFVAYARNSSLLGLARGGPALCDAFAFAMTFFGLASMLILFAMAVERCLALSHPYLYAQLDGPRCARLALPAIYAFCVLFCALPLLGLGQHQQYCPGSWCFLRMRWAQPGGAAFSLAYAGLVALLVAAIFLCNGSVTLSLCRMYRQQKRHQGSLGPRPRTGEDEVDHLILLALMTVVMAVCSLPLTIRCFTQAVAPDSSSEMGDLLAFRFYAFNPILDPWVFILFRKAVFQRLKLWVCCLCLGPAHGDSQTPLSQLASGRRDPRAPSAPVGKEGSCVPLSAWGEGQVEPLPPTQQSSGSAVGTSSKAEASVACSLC
Description: This concept was applied to the development of a prostacyclin receptor (IPR) tracer.
Series [2] can be described thus: CHI(IAM) non-specific binding measurement. Format: physicochemical. The note with it: experimental non-specific binding measurement. The source says:
Materials and methods: Similarly to the Ligand Efficiency (LE) index, we explored the usefulness of the Ligand Specific Efficiency index (LSE), which we defined as the ratio between affinity (expressed as e.g. pIC50 or pKd), and the logarithmic value of the experimental non-specific binding measurement, CHI(IAM).^[Jiang] LSE provides a measure of affinity, normalized to non-specific binding.

The target of a further series is T1, CSF-1R (Rattus norvegicus, UniProt Q00495).
T1 construct: from tissue; host or cells: living female rats (brain)
T1 sequence (Q00495 20-978): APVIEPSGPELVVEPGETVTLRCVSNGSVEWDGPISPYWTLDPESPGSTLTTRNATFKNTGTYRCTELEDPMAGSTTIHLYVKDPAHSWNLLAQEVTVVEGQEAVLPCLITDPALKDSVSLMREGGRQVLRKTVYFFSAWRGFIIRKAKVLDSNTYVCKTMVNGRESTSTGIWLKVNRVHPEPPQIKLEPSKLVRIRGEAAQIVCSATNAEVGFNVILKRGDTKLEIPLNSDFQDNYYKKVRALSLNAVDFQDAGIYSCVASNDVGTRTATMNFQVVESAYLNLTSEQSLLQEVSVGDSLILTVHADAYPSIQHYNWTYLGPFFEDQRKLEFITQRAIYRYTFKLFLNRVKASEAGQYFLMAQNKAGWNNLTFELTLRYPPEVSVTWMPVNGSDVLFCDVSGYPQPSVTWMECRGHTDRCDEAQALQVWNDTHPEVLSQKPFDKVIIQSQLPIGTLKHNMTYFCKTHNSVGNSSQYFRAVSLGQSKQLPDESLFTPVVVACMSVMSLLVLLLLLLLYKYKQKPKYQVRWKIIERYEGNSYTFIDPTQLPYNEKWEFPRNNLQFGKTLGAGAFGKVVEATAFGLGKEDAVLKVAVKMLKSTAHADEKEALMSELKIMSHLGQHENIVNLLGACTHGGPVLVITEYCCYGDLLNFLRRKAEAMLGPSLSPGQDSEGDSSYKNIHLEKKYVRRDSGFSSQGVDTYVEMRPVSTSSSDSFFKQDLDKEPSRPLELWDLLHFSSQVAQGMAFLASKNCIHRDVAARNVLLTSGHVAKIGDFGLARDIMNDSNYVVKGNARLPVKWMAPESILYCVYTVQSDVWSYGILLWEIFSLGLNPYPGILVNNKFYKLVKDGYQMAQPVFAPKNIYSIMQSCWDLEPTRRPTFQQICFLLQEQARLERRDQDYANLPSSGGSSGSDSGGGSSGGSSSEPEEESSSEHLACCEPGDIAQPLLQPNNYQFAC
Format: in vivo. The note with it: female rats. The source says: (§1) Materials and methods: All the chemicals and reagents used in the experiments were obtained from commercial sources and used without any further purification. Synthesis of 5-cyano-N-(4-(4-methylpiperazine-1-yl)-2-(4-methylpiperidin-1-yl)phenyl)furan-2-carboxamide and 5-cyano-N-(2-(4-methylpiperidine-1-yl)-4-(piperazine-1-yl)phenyl)furan-2-carboxamide molecules were done according to literature methods available with slight modifications for radiolabeling experiments^3. The [^11C]-methyl triflate reacts with the precursor in presence of a base at room temperature for 2 minutes gives the carbon-11 radiolabeled [^11C]BA-1 which was purified by using semi-preparative reversed-phase high pressure liquid chromatography (RP-HPLC). The peak corresponding the reference compound will be collected and checked for the purity using analytical RP-HPLC. Baseline biodistribution study was performed at 2, 10, 30 and 60 min. respectively. Blocking experiment (10 mg/kg cold compound) was performed at 30 min time point in healthy female adult mice n=3 and compared with vehicle treated batch. In vitro autoradiography experiments were carried on rat brain slices by incubating tracer and cold blocking solution. MicroPET imaging studies were performed on a Focus™ 220 microPET scanner with female rats.

Series [3] is classed as in vivo. The note with it: healthy mice, 2 min.
Description: as §1

A further series deals with MCHR1 (Rattus norvegicus, UniProt P97639). The note with it: rats, n=3. As for the experimental part: Materials and methods: In vivo experiments were conducted in naïve male Sprague Dawley rats. For small-animal PET/CT/MR experiments, rats were anesthetized by isoflurane. 25min after [^18F]FE@SNAP iv injection (47.8±1MBq; SA: 19.7±6GBq/μmol), vehicle (baseline group, n=3) or 15mg/kg SNAP-7941 (blocking group, n=3) were administered through the tail vein. 75min after tracer injection, the rats were sacrificed. Radioactivity concentrations in brain were calculated and expressed as SUVs. In another set of experiments, [^18F]FE@SNAP (51.3±26MBq; SA: 36.1±28GBq/μmol) as well as vehicle (baseline group, n=3) or 15mg/kg SNAP-7941 (blocking group, n=3) were injected into conscious freely moving rats via a permanent catheter implanted into the jugular vein, thus excluding an influence of anaesthesia. 45min after tracer application, rats were sacrificed, the brain was removed and cut for ex vivo autoradiography. Subsequently, brain slices were put on Phosphor Imager plates for exposure and analyzed with a Cyclone Phosphor Imager the following day. Regions of interest (ROIs) were drawn for the hypothalamic region, the ventricle and a non-target region.
Sequence of MCHR1 (P97639 whole entry): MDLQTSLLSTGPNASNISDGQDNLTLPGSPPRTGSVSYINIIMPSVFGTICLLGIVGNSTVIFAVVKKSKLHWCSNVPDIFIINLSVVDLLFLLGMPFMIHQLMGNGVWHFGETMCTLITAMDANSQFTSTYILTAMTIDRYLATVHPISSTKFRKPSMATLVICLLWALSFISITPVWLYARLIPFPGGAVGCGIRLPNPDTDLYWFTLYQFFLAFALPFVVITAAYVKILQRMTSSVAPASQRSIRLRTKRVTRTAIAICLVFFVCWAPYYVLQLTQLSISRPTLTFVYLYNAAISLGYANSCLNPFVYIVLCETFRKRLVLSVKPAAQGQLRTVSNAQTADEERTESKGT

Series [4] concerns B16-F10 pulmonary metastatic melanoma. To be noted: NMRI mice, B16-F10 lung metastases, 1h-post injection PET, n=8. On the procedure: (§2) Materials and methods: [^18F]MEL050 was synthesized using a one-step bromine-for-fluorine nucleophilic heteroaromatic substitution. Briefly, [^18F]MEL050 was prepared from a bromo-precursor, using no-carrier-added 18F-KF-Kryptofix 222 (dimethylformamide, 150°C, 6 min), followed by preparative HPLC purification (C18 column (300x7.8 mm, 7 μm), isocratic elution with acetonitrile/20 mM ammonium bicarbonate (20:80, v/v), 3.0 ml/min) and cartridge-reformulation (Sep-Pak® Plus C18 environmental) of the collected fraction. Radiochemical and chemical purity, stability and specific activity measurements were monitored using analytical HPLC. Chemical identity of the labeled compound [^18F]MEL050 was assessed by co-injection with non-radioactive standard MEL050. Experimental model of pulmonary metastatic melanoma was obtained by IV injection of B16-F10 cells in NMRI mice. Mice (n=8) were imaged 15 days after inoculation, using INVEON microPET/CT device (Siemens), after IV injection of 0.36±0.04MBq/g of [^18F]MEL050. Dynamic and static acquisitions were acquired from time of injection to 2h after tracer injection. The maximum percentage of [^18F]MEL050 Injected Dose per g of lung tissue (%ID/g Max) was determined using ROIs manually drawn on 1h-post injection PET images, and correlated to ex-vivo findings.

The conditions of series [5]: over 6 h, analytical HPLC. On the procedure: as §2
Series [6] in a line: PET/CT imaging in nude mice bearing U87MG xenograft tumor. Format: in vivo. The note with it: mouse, 90 min post injection. On the procedure: Materials and methods: The PET imaging properties of [^68Ga]FSC(succ-RGD)3 were studied in nude mice bearing M21 human melanoma xenografts and human glioblastoma U87MG xenograft tumor. A parallel PET imaging of ^68GaNODAGA-RGD in same mouse bearing U87MG xenograft tumor was performed as a comparison.

Another series concerns LNCaP cells. The series can be described thus: Cellular internalization of radiofluorinated PSMA ligands. Format: cell-based. The note with it: in vitro. As for the experimental part:
(§3) Materials and methods: The PSMA binding motif Glu-NH-CO-NH-Lys was synthesized by a well-established method (4) using solid phase chemistry and subsequently an amino acid linker was built up by fmoc-based solid phase peptide synthesis (SPPS). The non-radioactive reference compounds were also prepared analogically and eventually conjugated by 6-fluoronicotinic acid. After separation from the resin and deprotection the peptidomimetics were labeled using the TFP-ester of 6-[^18F]fluoronicotinic acid as prosthetic group. The Ki values of all compounds were determined by competitive binding assays on PSMA-positive LNCaP cells against ^68Ga-PSMA-10 (5) using the respective cold reference compounds. Additionally, the cellular internalization of the radiofluorinated ligands was determined.

For a further series, the target named is T2, PSMA (Homo sapiens, UniProt Q04609).
T2 construct: endogenous in cells; host or cells: LNCaP
T2 sequence (Q04609 whole entry): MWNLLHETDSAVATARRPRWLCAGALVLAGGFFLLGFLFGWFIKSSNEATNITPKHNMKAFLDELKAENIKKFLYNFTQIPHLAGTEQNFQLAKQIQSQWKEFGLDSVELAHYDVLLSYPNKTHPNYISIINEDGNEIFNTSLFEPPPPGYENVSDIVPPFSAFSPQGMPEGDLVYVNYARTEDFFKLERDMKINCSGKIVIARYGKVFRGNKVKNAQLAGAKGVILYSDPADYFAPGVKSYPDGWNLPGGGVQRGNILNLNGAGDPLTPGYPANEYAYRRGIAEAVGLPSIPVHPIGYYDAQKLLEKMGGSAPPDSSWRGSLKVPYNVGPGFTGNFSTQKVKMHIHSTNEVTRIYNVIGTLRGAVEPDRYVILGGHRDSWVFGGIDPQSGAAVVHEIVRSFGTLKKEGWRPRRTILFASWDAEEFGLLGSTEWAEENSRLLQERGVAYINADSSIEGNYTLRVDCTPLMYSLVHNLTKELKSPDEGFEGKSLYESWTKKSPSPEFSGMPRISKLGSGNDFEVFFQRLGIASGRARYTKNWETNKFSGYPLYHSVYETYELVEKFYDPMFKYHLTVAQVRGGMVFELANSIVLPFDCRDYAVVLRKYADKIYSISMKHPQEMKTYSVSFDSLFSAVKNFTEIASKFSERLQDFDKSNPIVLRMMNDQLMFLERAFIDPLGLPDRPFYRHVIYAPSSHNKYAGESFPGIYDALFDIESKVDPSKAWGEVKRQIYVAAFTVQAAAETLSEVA
Description: Competitive binding assay on PSMA-positive LNCaP cells against 68Ga-PSMA-10. The note with it: against 68Ga-PSMA-10, cold reference compounds. On the procedure:
as §3

The test system of series [7] is U-87 MG and SKOV-3 tumours. The note with it: 1 h after injection. On the procedure: The in vitro binding characteristics of FPyPEGCBT-c(RGDfK) were analysed by standard binding assay in U-87 MG and SKOV-3 cancer models and its selectivity towards integrins by siRNA depletions. Its preclinical potential was studied in mice bearing subcutaneous tumours by ex vivo biodistribution studies and in vivo microPET/CT imaging.

Take `N=C(N)NCCC[C@@H]1NC(=O)[C@H](CCCCNC(=O)Cn2cc(C[C@H](N)C(=O)O)nn2)NC(=O)[C@@H](Cc2ccccc2)NC(=O)[C@H](CC(=O)O)NC(=O)CNC1=O` [99mTc(CO)3-Pra-Tz-CH2-cRGDfK, metal not drawn]: in “in vivo”, the tissue uptake at 0.5 h is 3.01 ± 0.77 %ID/g.
Consider `N=C(N)NCCC[C@@H]1NC(=O)[C@H](CCCCNC(=O)CCOCCOCCOCCOCCOCCOCCOCCn2cc(C[C@H](N)C(=O)O)nn2)NC(=O)[C@@H](Cc2ccccc2)NC(=O)[C@H](CC(=O)O)NC(=O)CNC1=O` [99mTc(CO)3-Pra-Tz-PEG7-cRGDfK, metal not drawn], for which the tissue uptake at 0.5 h in “in vivo” turned out to be 4.11 ± 0.51 %ID/g.
The compound `CC(C)Oc1ccc(Cc2ccc(NC3=NCCN3)cc2)cc1.Cl` [Ro1138452] registered a Ki in [1] of 0.23 nM. Moreover, the “CHI(IAM)” value in series [2] turned out to be 58.
In the case of `CC1CCN(c2cc(N3CCN(C)CC3)ccc2NC(=O)c2ccc(C#N)o2)CC1` [[11C]-BA1, 5-cyano-N-(4-(4-methylpiperazine-1-yl)-2-(4-methylpiperidin-1-yl)phenyl)furan-2-carboxamide], on CSF-1R (baseline microPET), the “brain SUV, baseline” value was 1.2 SUV. Besides, the “brain SUV, with blocking” value on CSF-1R (blocking with cold compound) is listed as 2 SUV. In series [3], the lung uptake is reported as 14 % ID and the “tracer uptake into the brain” value is recorded as 4 % ID.
Consider `COCC1=C(C(=O)OCC[18F])C(c2ccc(F)c(F)c2)N(C(=O)NCCCN2CCC(c3cccc(NC(C)=O)c3)CC2)C(=O)N1` (stereo not drawn) [[18F]FE@SNAP], for which, on MCHR1 (15mg/kg SNAP-7941 25min after tracer), the “SUV in the ventricular system, blocking group” value stood at 0.34±0.07 SUV. Moreover, the “SUV in the ventricular system, baseline group” value on MCHR1 (vehicle 25min after tracer) worked out at 0.73±0.11 SUV.
For the compound `CCN(CC)CCNC(=O)c1ccc([18F])nc1` [[18F]MEL050], the “%ID/g Max in lung tumours” value in [4] was found to be 4.7±2.6%. Moreover, the “product stability (RCP)” value in series [5] was more than 98%.
With `C/C1=C/C(=O)N(O)CCC[C@H](NC(=O)CCC(=O)NCCCC[C@@H]2NC(=O)[C@@H](Cc3ccccc3)NC(=O)[C@H](CC(=O)O)NC(=O)CNC(=O)[C@H](CCCNC(=N)N)NC2=O)C(=O)OCC/C(C)=C\C(=O)N(O)CCC[C@H](NC(=O)CCC(=O)NCCCC[C@@H]2NC(=O)[C@@H](Cc3ccccc3)NC(=O)[C@H](CC(=O)O)NC(=O)CNC(=O)[C@H](CCCNC(=N)N)NC2=O)C(=O)OCC/C(C)=C\C(=O)N(O)CCC[C@H](NC(=O)CCC(=O)NCCCC[C@@H]2NC(=O)[C@@H](Cc3ccccc3)NC(=O)[C@H](CC(=O)O)NC(=O)CNC(=O)[C@H](CCCNC(=N)N)NC2=O)C(=O)OCC1` [[68Ga]FSC(succ-RGD)3, metal not drawn], the tissue to tissue ratio at […] in series [6] (tumour and kidneys, read-out: tumor/kidneys ratio) was determined as 1.3; in [6] (tumour and muscle, read-out: tumor/muscle ratio), 4.9.
PSMA-1007: the internalization ratio result in the series with LNCaP cells was “about 70%”. This compound also showed a Ki at PSMA of 6 nM.
As to [18F]FPyPEGCBT-c(RGDfK) (head to tail), in series [7], the “tumour uptake, SKOV-3” value is on record as 2.4 %ID/g and the “tumour uptake, U-87 MG” value is given as 2.9 %ID/g.
